Where a name gives a salt, the structure may show the parent alone. Read-outs that look alike come from different tables or passages of the source.
Test system: amyloid β production in transfected H4 (human neuroglioma) cells stably expressing APP constructs
Test: In vitro cell-based assay of inhibitors of amyloid β production (ELISA)
Conditions: transfected H4 cells stably expressing APP, approximately 16 hours incubation, amyloid β in medium by ELISA, read-out: ACTIVITY (IC50, inhibition of amyloid β production)
Summary of the method: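 Plate wt/variant APP cells; ≥6 h later swap to medium + compound (10-100 μM screen); incubate ~16 h; sample medium; Aβ ELISA with C-terminal capture / N-terminal detection Abs; quantify vs Aβ standard curve.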

SMILES | IC50 (Homo sapiens, 16 h) [nM] | IC50 [nM]
CN1CCCCC1CCOc1ccccc1CN(c1ccccc1)S(=O)(=O)c1ccc(Cl)cc1 (stereo not shown) [Example 889, 4-chloro-N-{2-[2-(1-methyl-2-piperidinyl)ethoxy]benzyl}-N-phenylbenzenesulfonamide hydrochloride] | > 500 | 
COc1ccc(C(=O)N2CCCCC2CCOc2ccccc2CN(c2cc(F)ccc2F)S(=O)(=O)c2ccc(Cl)cc2)cc1OC (stereo not shown) [Example 890, 4-chloro-N-(2,5-difluorophenyl)-N-(2-{2-[1-(3,4-dimethoxybenzoyl)-2-piperidinyl]ethoxy}benzyl)benzenesulfonamide] | > 500 | 
C[C@H](c1ccccc1OCCCn1ccnc1)N(c1cccc(F)c1)S(=O)(=O)c1ccc(Cl)cc1 [Example 895, 4-chloro-N-(3-fluorophenyl)-N-((1R)-1-{2-[3-(1H-imidazol-1-yl)propoxy]phenyl}ethyl)benzenesulfonamide hydrochloride] | > 500 | 
O=S(=O)(c1ccc(Cl)cc1)N(Cc1ccccc1OCCCN1CCCCC1)C1CCCCCC1 [Example 897, 4-chloro-N-cycloheptyl-N-{2-[3-(1-piperidinyl)propoxy]benzyl}benzenesulfonamide hydrochloride] | > 500 | 
CCCCOc1ccc(C(=O)N2CCCCC2CCOc2ccccc2CN(c2cc(F)ccc2F)S(=O)(=O)c2ccc(Cl)cc2)cc1 (stereo not shown) [Example 899, N-(2-{2-[1-(4-butoxybenzoyl)-2-piperidinyl]ethoxy}benzyl)-4-chloro-N-(2,5-difluorophenyl)benzenesulfonamide] | > 500 | 
O=C(c1ccc(I)cc1)N1CCCCC1CCOc1ccccc1CN(c1cc(F)ccc1F)S(=O)(=O)c1ccc(Cl)cc1 (stereo not shown) [Example 901, 4-chloro-N-(2,5-difluorophenyl)-N-(2-{2-[1-(4-iodobenzoyl)-2-piperidinyl]ethoxy}benzyl)benzenesulfonamide] | > 500 | 
COc1ccccc1C(=O)N1CCCCC1CCOc1ccccc1CN(c1cc(F)ccc1F)S(=O)(=O)c1ccc(Cl)cc1 (stereo not shown) [Example 902, 4-chloro-N-(2,5-difluorophenyl)-N-(2-{2-[1-(2-methoxybenzoyl)-2-piperidinyl]ethoxy}benzyl)benzenesulfonamide] | > 500 | 
O=C(OC[C@H](c1ccccc1)N(c1cc(F)ccc1F)S(=O)(=O)c1ccc(Cl)cc1)c1ccncc1 [Example 904, (2S)-2-{[(4-chlorophenyl)sulfonyl]-2,5-difluoroanilino}-2-henylethyl isonicotinate] |  | > 500
O=[N+]([O-])c1ccc(S(=O)(=O)CCCOc2ccccc2CN(c2cc(F)ccc2F)S(=O)(=O)c2ccc(Cl)cc2)cc1 [Example 905, 4-chloro-N-(2,5-difluorophenyl)-N-(2-{3-[(4-nitrophenyl)sulfonyl]propoxy}benzyl)benzenesulfonamide] | > 500 | 
O=S(=O)(c1ccc(Cl)cc1)N(Cc1ccccc1OCCCN1CCCCC1)c1cc(Cl)cnc1Cl [Example 906, 4-chloro-N-(2,5-dichloro-3-pyridinyl)-N-{2-[3-(1-piperidinyl)propoxy]benzyl}benzenesulfonamide hydrochloride] | > 500 | 
C[C@H](c1ccccc1OCCCn1ccnc1)N(c1cc(F)ccc1F)S(=O)(=O)c1ccc(Cl)cc1 [Example 908, 4-chloro-N-(2,5-difluorophenyl)-N-((1R)-1-{2-[3-(1H-imidazol-1-yl)propoxy]phenyl}ethyl)benzenesulfonamide hydrochloride] | > 500 | 
COc1cccc(C(=O)N2CCCCC2CCOc2ccccc2CN(c2cc(F)ccc2F)S(=O)(=O)c2ccc(Cl)cc2)c1 (stereo not shown) [Example 909, 4-chloro-N-(2,5-difluorophenyl)-N-(2-{2-[1-(3-methoxybenzoyl)-2-piperidinyl]ethoxy}benzyl)benzenesulfonamide] | > 500 | 
CSCCCc1cc(F)ccc1[C@@H](C)N(c1cc(F)ccc1F)S(=O)(=O)c1ccc(SC)cc1 [Example 912, N-(2,5-difluorophenyl)-N-((1R)-1-{4-fluoro-2-[3-(methylsulfanyl)propyl]phenyl}ethyl)-4-(methylsulfanyl)benzenesulfonamide] | > 500 | 
O=S(=O)(c1ccc(Cl)cc1)N(Cc1ccccc1OCCCN1CCCC(O)C1)c1ccccc1 (stereo not shown) [Example 915, 4-chloro-N-{2-[3-(3-hydroxy-1-piperidinyl)propoxy]benzyl}-N-phenylbenzenesulfonamide hydrochloride] | > 500 | 
O=C1c2ccccc2C(=O)N1CCCOc1ccccc1CN(c1cc(F)ccc1F)S(=O)(=O)c1ccc(Cl)cc1 [Example 916, 4-chloro-N-(2,5-difluorophenyl)-N-{2-[3-(1,3-dioxo-1,3-dihydro-2H-isoindol-2-yl)propoxy]benzyl}benzenesulfonamide] | > 500 | 
CC(COc1ccccc1CN(c1ccccc1)S(=O)(=O)c1ccc(Cl)cc1)N1CCC1 (stereo not shown) [Example 918, N-{2-[2-(1-azetidinyl)propoxy]benzyl}-4-chloro-N-phenylbenzenesulfonamide hydrochloride] | > 500 | 
Cc1cccc(N(Cc2ccccc2OCCCN2CCCCC2)S(=O)(=O)c2ccc(Cl)cc2)c1 [Example 919, 4-chloro-N-(3-methylphenyl)-N-{2-[3-(1-piperidinyl)propoxy]benzyl}benzenesulfonamide hydrochloride] | > 500 | 
O=C(c1ccc2c(c1)OCO2)N1CCCCC1CCOc1ccccc1CN(c1cc(F)ccc1F)S(=O)(=O)c1ccc(Cl)cc1 (stereo not shown) [Example 921, N-(2-{2-[1-(1,3-benzodioxol-5-ylcarbonyl)-2-piperidinyl]ethoxy}benzyl)-4-chloro-N-(2,5-difluorophenyl)benzenesulfonamide] | > 500 | 
O=S(=O)(c1ccc(Cl)cc1)N(Cc1ccccc1OCCCN1CCC(CO)CC1)c1ccccc1 [Example 922, 4-chloro-N-(2-{3-[4-(hydroxymethyl)-1-piperidinyl]propoxy}benzyl)-N-phenylbenzenesulfonamide hydrochloride] | > 500 | 
O=C(/C=C/c1ccccc1CN(c1ccccc1)S(=O)(=O)c1ccc(Cl)cc1)N1CCCC1 [Example 923] |  | > 500
CSc1ccccc1N(Cc1ccccc1OCCCN1CCCCC1)S(=O)(=O)c1ccc(Cl)cc1 [Example 924, 4-chloro-N-[2-(methylsulfanyl)phenyl]-N-{2-[3-(1-piperidinyl)propoxy]benzyl}benzenesulfonamide hydrochloride] | > 500 | 
CC1CC(C)CN(CCCOc2ccccc2CN(c2ccccc2)S(=O)(=O)c2ccc(Cl)cc2)C1 (stereo not shown) [Example 926, 4-chloro-N-{2-[3-(3,5-dimethyl-1-piperidinyl)propoxy]benzyl}-N-phenylbenzenesulfonamide hydrochloride] | > 500 | 
CC(C)CC(C)C(=O)N(C)CCOc1ccccc1C(C)N(c1cc(F)ccc1F)S(=O)(=O)c1ccc(Cl)cc1 (stereo not shown) [Example 930, N-{2-[2-(1-{[(4-chlorophenyl)sulfonyl]-2,5-difluoroanilino}ethyl)phenoxy]ethyl}-N,2,4-trimethylpentamide] |  | > 500
O=S(=O)(c1ccc(Cl)cc1)N(Cc1ccccc1OCCC1CCCCN1Cc1cccc(F)c1F)c1cc(F)ccc1F (stereo not shown) [Example 933, 4-chloro-N-(2-{2-[1-(2,3-difluorobenzyl)-2-piperidinyl]ethoxy}benzyl)-N-(2,5-difluorophenyl)benzenesulfonamide] | > 500 | 
C[C@@H](Oc1ccc(Cl)cc1N(C)S(=O)(=O)c1ccc(Cl)cc1)c1ccc(F)cc1CCCC(=O)O [Example 935, 4-[2-((1R)-1-{4-chloro-2-[[(4-chlorophenyl)sulfonyl](methyl)amino]phenoxy}ethyl)-5-fluorophenyl]butanoic acid] | > 500 | 

Source: patent publication US6967196B1, “Sulfonamide compounds and uses thereof” (Bristol-Myers Squibb Company, priority 1999, dated 2005)
